PMC6447865, “Novel Group of Imidazole Derivatives as Atypical Selective Cyclooxygenase-2 Inhibitors: Design, Synthesis and Biological Evaluation” (Iranian Journal of Pharmaceutical Research : IJPR, 2018)

Tests used:
[1] = target: T1, COX-1 enzyme (Ovis aries, UniProt P05979); assay: biochemical; conditions: mean of two values; enzyme incubated with inhibitor 2 min, pH 8.0, 25 °C; arachidonic acid substrate; absorbance 590 nm
T1 construct: purchased Cayman 701050
T1 sequence (P05979 25-600): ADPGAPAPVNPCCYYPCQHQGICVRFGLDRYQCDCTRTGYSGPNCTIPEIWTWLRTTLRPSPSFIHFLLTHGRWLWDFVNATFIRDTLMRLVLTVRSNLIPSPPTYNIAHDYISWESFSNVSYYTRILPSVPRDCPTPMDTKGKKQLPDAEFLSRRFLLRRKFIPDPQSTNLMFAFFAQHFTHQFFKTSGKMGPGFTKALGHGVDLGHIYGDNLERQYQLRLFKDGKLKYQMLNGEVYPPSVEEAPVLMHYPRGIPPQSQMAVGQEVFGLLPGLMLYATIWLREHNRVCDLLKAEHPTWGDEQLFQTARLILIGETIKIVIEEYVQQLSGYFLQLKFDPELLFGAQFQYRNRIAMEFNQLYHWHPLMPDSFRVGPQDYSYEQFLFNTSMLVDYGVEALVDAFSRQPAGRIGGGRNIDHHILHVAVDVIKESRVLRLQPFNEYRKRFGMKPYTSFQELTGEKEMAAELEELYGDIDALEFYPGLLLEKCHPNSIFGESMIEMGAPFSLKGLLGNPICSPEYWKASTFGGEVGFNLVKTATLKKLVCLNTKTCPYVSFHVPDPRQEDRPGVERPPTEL
Method: (§1) All test samples were dissolved in DMSO and absorbance was read at 590 nm. The IC50 amounts of the novel compounds were analyzed using nonlinear regression with Dos-response inhibition parameter by the activity base software package (Program Prism, Graph Pad, SanDiego, CA).

[2] = target: T2, COX-2 enzyme (Homo sapiens, UniProt P35354); assay: biochemical; conditions: for IC50: mean of two values, enzyme incubated with inhibitor 2 min, pH 8.0, 25 °C, arachidonic acid substrate, absorbance 590 nm; for COX-2 S.I. (in-vitro COX-2 selectivity index, COX-1/COX-2): ratio IC50 COX-1 / IC50 COX-2
T2 construct: purchased Cayman 701050
T2 sequence (P35354 18-604): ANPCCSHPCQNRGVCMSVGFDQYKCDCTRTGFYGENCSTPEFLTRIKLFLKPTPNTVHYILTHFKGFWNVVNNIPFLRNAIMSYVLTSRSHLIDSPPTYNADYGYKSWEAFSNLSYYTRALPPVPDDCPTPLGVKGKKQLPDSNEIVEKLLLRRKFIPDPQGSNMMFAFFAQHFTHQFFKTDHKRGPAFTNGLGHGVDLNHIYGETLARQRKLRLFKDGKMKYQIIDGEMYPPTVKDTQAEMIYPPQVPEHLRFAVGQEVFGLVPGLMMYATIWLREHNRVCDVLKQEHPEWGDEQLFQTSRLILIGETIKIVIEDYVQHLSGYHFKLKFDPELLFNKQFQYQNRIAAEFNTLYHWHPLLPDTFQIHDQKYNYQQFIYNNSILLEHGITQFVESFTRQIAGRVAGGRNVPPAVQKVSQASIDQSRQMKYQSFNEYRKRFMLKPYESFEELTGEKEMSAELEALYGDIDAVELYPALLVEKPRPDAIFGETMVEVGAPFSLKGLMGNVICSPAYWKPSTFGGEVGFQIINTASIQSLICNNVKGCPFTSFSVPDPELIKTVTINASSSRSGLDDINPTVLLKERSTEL
Method: as §1

Row | SMILES | IC50 [1] | IC50 [2] | COX-2 S.I. (in-vitro COX-2 selectivity index, COX-1/COX-2) [2] | melting point
1 | COc1ccc(NCc2cnc(S(C)(=O)=O)n2Cc2ccccc2)cc1 [Compound 5b, N-((1-benzyl-2-(methylsulfonyl)-1H-imidazol-5-yl)methyl)-4-methoxybenzamine] | 82 µM | 0.71 µM | 115 | 152 °C
2 | CS(=O)(=O)c1ncc(CNc2ccc([N+](=O)[O-])cc2)n1Cc1ccccc1 [Compound 5d, N-((1-benzyl-2-(methylsulfonyl)-1H-imidazol-5-yl)methyl)-4-nitrobenzamine] | 78 µM | 3 µM | 26 | 177 °C
3 | CS(=O)(=O)c1ncc(CNc2ccccc2)n1Cc1ccccc1 [Compound 5a, N-((1-benzyl-2-(methylsulfonyl)-1H-imidazol-5-yl)methyl)benzamine] | 87 µM | 3.2 µM | 27 | 114 to 115 °C

Continued, values first:

Row | IC50 [1] | IC50 [2] | COX-2 S.I. (in-vitro COX-2 selectivity index, COX-1/COX-2) [2] | melting point | SMILES
4 | 138 µM | 3.6 µM | 38 | 142 °C | CS(=O)(=O)c1ncc(CNc2ccc(Cl)cc2)n1Cc1ccccc1 [Compound 5e, N-((1-benzyl-2-(methylsulfonyl)-1H-imidazol-5-yl)methyl)-4-chlorobenzamine]
5 | 78 µM | 2.8 µM | 28 | 155 °C | CS(=O)(=O)c1ncc(CNc2ccc(Br)cc2)n1Cc1ccccc1 [Compound 5c, N-((1-benzyl-2-(methylsulfonyl)-1H-imidazol-5-yl)methyl)-4-bromobenzamine]
